Here are results for 3 compounds from article PMC4461042 (Structure (London, England : 1993), 2015).

Read-outs that look alike come from different tables or passages of the source.

Data set [1] concerns the target A-AChBP (Aplysia californica, UniProt Q8WSF8). It is filed as binding. The following applies: for Kd: read-out: Kd/calc.
Data set [2] deals with full-length α7 nAChR (Homo sapiens, UniProt P36544). It is filed as binding.
Data set [3] concerns the target T1, human neuronal α7 nAChR (Homo sapiens, UniProt P36544). It is filed as cell-based.
The target of data set [4] is full-length α4β2 nAChR (Homo sapiens, UniProt P17787+P43681). It is filed as binding.
Data set [5] has as its target T2, human neuronal α4β2 nAChR (Homo sapiens, UniProt P17787+P43681). The following applies: read-out: IC50, inhibition of ACh-evoked nicotinic currents; cited from earlier work.
For data set [6], the system named is muscle-type α1_2βγδ nAChR. The note with it: read-out: IC50, inhibition of ACh-evoked nicotinic currents; cited from earlier work.
The target in data set [7] is T3, α3β2 nAChR (Homo sapiens, UniProt P17787+P32297). The following applies: cited from earlier work.
Data set [8] concerns the target L-AChBP (Lymnaea stagnalis, UniProt P58154). It is filed as binding.
The target of data set [9] is T4, α4β2 nAChR (Homo sapiens, UniProt P17787+P43681). The note with it: cited from earlier work.
For data set [10], the target named is T1, human neuronal α7 nAChR. The note with it: read-out: IC50, inhibition of ACh-evoked nicotinic currents; cited from earlier work.
Data set [11] deals with mice. The following applies: in vivo; cited from earlier work.
The target in data set [12] is A-AChBP/α7 chimera III. It is filed as binding. The note with it: read-out: Kd/equ.
The target in data set [13] is T4, α4β2 nAChR. It is filed as binding.
In data set [14] the target is T2, human neuronal α4β2 nAChR. It is filed as cell-based. The note with it: read-out: IC50, inhibition of ACh-evoked nicotinic currents.
Data set [15] has as its system muscle-type α1_2βγδ nAChR. It is filed as cell-based, Torpedo. The following applies: read-out: IC50, inhibition of ACh-evoked nicotinic currents.
For data set [16], the target named is T3, α3β2 nAChR. It is filed as binding.
Where [17] appears, read: read-out: Kd/equ, competitive component.
[18] abbreviates: read-out: Kd/equ, non-competitive component.

Sequence of L-AChBP (P58154 20-229 limits assumed): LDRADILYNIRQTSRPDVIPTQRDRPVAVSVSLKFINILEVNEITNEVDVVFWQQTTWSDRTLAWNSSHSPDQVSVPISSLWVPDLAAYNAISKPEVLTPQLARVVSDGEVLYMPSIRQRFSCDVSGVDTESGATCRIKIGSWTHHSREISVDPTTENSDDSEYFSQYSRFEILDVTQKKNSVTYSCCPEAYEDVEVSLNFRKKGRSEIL
Sequence of A-AChBP (Q8WSF8 18-236 limits assumed): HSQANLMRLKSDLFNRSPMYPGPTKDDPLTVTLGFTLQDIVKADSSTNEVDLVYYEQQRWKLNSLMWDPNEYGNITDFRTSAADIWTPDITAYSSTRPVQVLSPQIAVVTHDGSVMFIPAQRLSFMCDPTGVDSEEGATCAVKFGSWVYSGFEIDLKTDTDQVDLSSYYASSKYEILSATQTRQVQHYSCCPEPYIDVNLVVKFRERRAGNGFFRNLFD
T1 sequence (P36544 23-502): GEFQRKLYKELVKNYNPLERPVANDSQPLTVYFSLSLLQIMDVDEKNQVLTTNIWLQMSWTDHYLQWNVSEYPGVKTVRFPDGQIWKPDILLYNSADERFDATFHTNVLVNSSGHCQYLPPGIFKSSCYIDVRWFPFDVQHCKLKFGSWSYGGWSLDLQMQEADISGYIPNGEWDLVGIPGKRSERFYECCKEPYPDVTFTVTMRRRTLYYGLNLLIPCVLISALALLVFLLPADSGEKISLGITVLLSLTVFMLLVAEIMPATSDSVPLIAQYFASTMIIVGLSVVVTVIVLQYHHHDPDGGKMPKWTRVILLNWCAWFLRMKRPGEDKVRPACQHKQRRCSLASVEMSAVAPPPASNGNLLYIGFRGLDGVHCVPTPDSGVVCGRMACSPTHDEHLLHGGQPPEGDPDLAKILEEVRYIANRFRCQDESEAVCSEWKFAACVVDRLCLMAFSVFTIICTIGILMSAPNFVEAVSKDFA
Sequence of full-length α7 nAChR (P36544 23-502): as above
Sequence of full-length α4β2 nAChR (P17787 26-502): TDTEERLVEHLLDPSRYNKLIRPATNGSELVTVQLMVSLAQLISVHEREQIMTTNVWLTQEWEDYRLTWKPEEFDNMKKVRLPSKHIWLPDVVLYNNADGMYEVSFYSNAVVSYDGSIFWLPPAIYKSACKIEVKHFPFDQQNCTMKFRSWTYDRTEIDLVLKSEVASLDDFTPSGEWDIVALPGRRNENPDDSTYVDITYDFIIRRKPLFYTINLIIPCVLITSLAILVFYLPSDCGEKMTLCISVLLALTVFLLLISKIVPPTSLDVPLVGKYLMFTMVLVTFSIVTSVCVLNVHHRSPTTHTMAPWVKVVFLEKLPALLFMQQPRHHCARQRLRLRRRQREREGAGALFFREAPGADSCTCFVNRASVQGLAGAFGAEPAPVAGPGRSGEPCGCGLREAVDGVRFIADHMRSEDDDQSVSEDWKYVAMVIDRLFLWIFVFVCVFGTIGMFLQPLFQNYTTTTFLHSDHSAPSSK
Sequence of full-length α4β2 nAChR (P43681 29-627): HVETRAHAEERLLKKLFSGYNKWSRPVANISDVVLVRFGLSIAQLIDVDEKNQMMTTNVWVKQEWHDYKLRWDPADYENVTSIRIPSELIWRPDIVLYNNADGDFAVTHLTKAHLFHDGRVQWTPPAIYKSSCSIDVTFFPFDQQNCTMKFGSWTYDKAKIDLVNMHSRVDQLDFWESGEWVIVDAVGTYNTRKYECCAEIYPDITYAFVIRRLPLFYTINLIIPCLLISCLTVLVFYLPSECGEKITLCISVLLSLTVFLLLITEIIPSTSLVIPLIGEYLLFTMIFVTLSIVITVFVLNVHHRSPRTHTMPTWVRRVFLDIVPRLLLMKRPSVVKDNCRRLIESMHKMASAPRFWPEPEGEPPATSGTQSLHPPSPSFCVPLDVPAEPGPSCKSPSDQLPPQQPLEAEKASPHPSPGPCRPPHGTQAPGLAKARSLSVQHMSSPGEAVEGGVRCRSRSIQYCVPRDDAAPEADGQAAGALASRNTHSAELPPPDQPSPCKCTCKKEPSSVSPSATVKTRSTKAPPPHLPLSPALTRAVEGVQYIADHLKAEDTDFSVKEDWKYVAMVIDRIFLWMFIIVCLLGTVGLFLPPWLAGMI
T3 sequence (P17787 26-502): as the sequence (P17787 26-502) above
T3 sequence (P32297 32-505): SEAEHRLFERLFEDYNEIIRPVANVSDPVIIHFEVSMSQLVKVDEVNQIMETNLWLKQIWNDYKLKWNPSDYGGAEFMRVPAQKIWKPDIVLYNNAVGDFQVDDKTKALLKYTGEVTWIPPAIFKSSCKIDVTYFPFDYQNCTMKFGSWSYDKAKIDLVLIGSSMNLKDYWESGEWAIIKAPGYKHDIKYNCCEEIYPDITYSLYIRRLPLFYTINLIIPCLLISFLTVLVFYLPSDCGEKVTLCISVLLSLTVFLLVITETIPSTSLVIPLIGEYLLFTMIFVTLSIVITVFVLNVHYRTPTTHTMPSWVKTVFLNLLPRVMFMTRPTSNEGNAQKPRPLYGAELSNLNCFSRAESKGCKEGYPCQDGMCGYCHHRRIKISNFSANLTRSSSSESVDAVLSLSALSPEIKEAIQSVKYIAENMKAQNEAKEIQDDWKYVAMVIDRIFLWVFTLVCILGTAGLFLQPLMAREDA
T2 sequence (P43681 29-627): as the sequence (P43681 29-627) above
T2 sequence (P17787 26-502): as the sequence (P17787 26-502) above
T4 sequence (P43681 29-627): as the sequence (P43681 29-627) above
T4 sequence (P17787 26-502): as the sequence (P17787 26-502) above

As a reminder, the IC50 is the concentration needed to halve the response being measured. The term Ki denotes a measure of affinity in units of concentration, obtained from inhibition or displacement. On to `C=C1CCCC2=NC[C@H](C)[C@@H](C)C[C@@]23CCC(C(=O)O)=C[C@@H]3[C@@H]2O[C@]3(C[C@H]4CCC[C@@]5(CC[C@@]6(O[C@@H](CC[C@@]6(C)O)C1)O5)O4)C[C@@H](C)[C@@H](O)[C@H]2O3` [PnTx-A, pinnatoxin-A], for which the koff in [1] was < 0.06 ^b min^−1; in [8], 31.6 ± 7.9 ^a min^−1. Moreover, the figures for the kon in [1] and in [8] were 1.4 ± 0.7 ^a 10^9 M^−1min^−1 and 0.21 ± 0.09 ^a 10^9 M^−1min^−1, respectively. For the same compound, the Kd in data set [1] was < 0.05 nM; in [2] (setting [17]) it was 0.18 ± 0.1 nM; in data set [2] (setting [18]), 2.6 ± 1.3 nM; in data set [4] (setting [17]), 95 ± 11 nM; in data set [4] (setting [18]), 199 ± 1 nM; in [8] (read-out: Kd/calc), 170 ± 77 nM. Also, the “greater potency (IC50) toward α7 than α4β2” value in data set [3] was ~ 300 fold. In addition, the values for the IC50 in data set [5], in data set [6] and in data set [10] were 30.4 nM, 5.53 nM and 0.107 nM, respectively. Further, the Ki is 9.4 ± 1.9 nM in data set [7] and 15.6 ± 5.2 nM in [9].
Regarding `C=C1CCCC2=NC[C@H](C)[C@@H](C)C[C@@]23CCC(C(=O)O)=C[C@@H]3[C@@H]2O[C@]3(C[C@H]4CCC[C@@]5(CC[C@@]6(O[C@@H](CC[C@@]6(C)O)C1)O5)O4)C[C@@H](C)[C@@H](O)[C@H]2O3` [(−)-PnTx-A], in [11], the “activity in mouse assays” value is “inactive”.
As for `C=CC1=C[C@@H]2[C@@H]3O[C@]4(C[C@H]5CCC[C@@]6(CC[C@@]7(O[C@@H](CC[C@@]7(C)O)CC(=C)CCCC7=NC[C@H](C)[C@@H](C)C[C@@]72CC1)O6)O5)C[C@@H](C)[C@@H](O)[C@H]3O4` [PnTx-G, pinnatoxin-G], the Kd in data set [12] was 174 ± 19 nM; in data set [1], 0.86 ± 0.09 nM; in data set [2] (setting [17]), 34 ± 4 nM; in data set [2] (setting [18]), 270 ± 50 nM; in [4] (setting [17]) it was 99 ± 50 nM; in [4] (setting [18]) it was 87 ± 62 nM. For the same compound, the results for the Kd in [8] (read-out: Kd/calc) and in data set [8] (read-out: Kd/equ) were 360 ± 210 nM and 315 nM, respectively. The Ki stood at 101 ± 30 nM in [13] and 63.9 ± 1.2 nM in [16]. Moreover, the IC50 in data set [14] was 4.9 nM; in data set [15] it was 3.82 nM; in data set [10] it was 5.06 nM. Also, the values for the koff in [1] and in data set [8] were 0.78 ± 0.06 ^b min^−1 and 60 ± 30 ^b min^−1, respectively. Further, the kon in data set [1] is reported as 0.91 ± 0.03 ^b 10^9 M^−1min^−1; in data set [8] it was 0.17 ± 0.01 ^b 10^9 M^−1min^−1. In addition, the “lower potency towards α7 compared with PnTx-A” value in data set [3] is ~ 50 fold.
